The values that follow come from US20190298717A1 (BOARD OF REGENTS, THE UNIVERSITY OF TEXAS SYSTEM, priority 2016, published 2019).

The test system of data set [1] is SH-SY5Y cells. How it is done: Viability of the cells was measured by Cell Titer Glo after 24 and 48 hours of treatments. […] Values are presented as mean±SDE (*p<0.05, **p<0.01).
SH-SY5Y neuroblastoma cells were treated with doxorubicin (0.2 μM), a cytotoxic compound that depletes the NAD pool of the cells and changes morphological features that mimic neurodegeneration such as loss of neuritis (8, 9).

Data set [2] has as its system Nrf2 knockdown SH-SY5Y cells. Particulars: Nrf2 siRNA knockdown, 24 h. How it is done: GSH is regulated by the rate-limiting enzyme GCL consisted of GCLc and GCLm subunits. […] The inventors then used extracellular lactate dehydrogenase cytotoxicity assay to measure cell survival.
Cell Viability and Cytotoxicity Assay. Cell growth was analyzed using the MTT cell viability assay. Briefly, at the end of incubation/treatment, MTT reagent was diluted in culture medium and aliquoted into each well. After incubation for 2 hours, the medium was aspirated and DMSO was aliquoted into each well to disrupt the cells and dissolve the intracellular MTT dyes. Absorbance was read at 570 nm wavelength in a 96-well plate reader. Cell toxicity was detected using a LDH cell toxicity assay kit (Promega, Fitchburg Wis.). This is a coupled enzymatic assay that detects a visible color signal initially described by Nachlas et. al. The reagent contained excess concentrations of lactate and NAD+as substrates to drive the LDH reaction and produce NADH. In the presence of diaphorase, NADH drives the enzyme-catalyzed conversion of iodonitro-tetrazolium violet to a red formazan product. Briefly, DMEM medium was withdrawn from each well of the plate after treatment and briefly centrifuged to get rid of floating cells or cell debris. […] The absorbance was read at 490 nm in a 96-well plate reader. […]

Another data set relates to thioredoxin 1 (Trx1). The settings on record: SH-SY5Y, after 24 h and 48 h. As for the experimental part: Trx1 reduces the cysteine residues critical for binding of Nrf2 to AREs (Hansen et al., 2004).
Western Blot Analysis. Protein expression was determined by Western blot analysis. Equal amount of protein from each sample was run in Tris-glycine SDS PAGE gel, followed by transferring to PVDF membrane. After blocking the membrane with 5% milk for 1 hour at room temperature, the membrane was incubated further for 2 hours with antibodies specific for target proteins: Nrf2, pNrf2(S40) from Novus (Littleton, Colo.); Keap1, HO-1, NQO1, GCLc, GCLm and lamin B1 from Cell Signaling (Danvers, Mass.); GAPDH from Santa Cruz (Dallas, Tex.); β-Actin from Thermo Fisher (Waltham, Mass.). The membrane was subsequently incubated with species-specific HRP-conjugated secondary antibody followed by incubation with chemiluminescence substrate and imaging. The band intensity of each of the target proteins was quantified using ImageQuant software (GE Healthcare, Sweden). Western blot analysis on worm lystaes was done similarly. […] Equal amounts of protein were run on the gel and SKN-1 protein level was detected using anti-GFP antibody.

For data set [3], the system named is HEK293 tau aggregate-negative and aggregate-positive cells. As for the experimental part: The inventors first measured the cell proliferation to evaluate the stress caused by expression of tau fibrils in aggregate-positive and negative cells (FIG. 6A). […] The inventors also measured the concentration of superoxide ions (O2-), a detrimental byproduct of oxidative phosphorylation, as an ROS representative. […] The inventors next measured expression of Nrf2 and HO-1 in the same cells (FIG. 6C). […] Aggregate-positive and -negative KD cells were treated with 200 μM H2O2 for 24 h. Cytotoxicity was measured as release of LDH.
(§1) Measurement of Reactive Oxygen Species. Superoxide concentration was measured by dihydroethidium (DHE). Black clear bottom 96 well plates were seeded with about 5000 HEK293 tau aggregate-negative (control) and aggregate-positive model cells per well and about 20000 SH-SY5Y cells (the NRF2 knockdown of both cell lines were also seeded). […] Fluorescence was measured by Spectramax Gemini XPS plate reader (Molecular Devices, Sunnyvale, Calif.) at 370 nm excitation and 420 nm emission wavelengths. […] Equal number of animals were transferred to a black bottom 96 well plate and fluorescence was measured same as above.

The conditions of data set [4]: data not shown.
The subject of a further data set is HEKTauP301S cells. Particulars: 20 μM Aβ (1-42), 5 and 10 μM, 24 hours. How it is done: (§2) The data represents as percent cell viability normalized to DMSO treated control cells. The values are mean percent of two biological experiments performed in six replicates. […] After treatment Western blot analysis was performed to check the levels of p-GSK3β and total GSK3β in addition to p-Tau and total Tau level. […] Densitometry values were normalized using actin as internal control. All western blot analysis (FIG. 19B, 19C) values are mean±SD from three biological independent experiments (shown in the right panel).
(§3) To mimic the cellular environment of AD disease a stable HEK293 cell line (HEKTauP301S) overexpressing mutated full length Tau (P301S) was used.

The next data set concerns GSK3β and Tau. How it is done:
as §2, §3

Data set [5] relates to C. elegans. As for the experimental part:
as §1

In data set [6] the test system is glutathione S-transferase-4 (GST-4).
Protocol: The inventors measured the expression of glutathione S-transferase-4 (GST-4), a downstream target of SKN-1, in a transgenic strain (CL2166) expressing GFP driven by the GST-4 promoter (Kahn et al., 2008).
Imaging. To measure the GFP intensity, synchronized populations of worms were anesthetized and arranged on agarose pad. The intestinal SKN-1::GFP was assayed by confocal microscopy (X40) (Nikon A1R, Nikon Instruments Inc., Melville, N.Y., USA) (FIG. 5A). The quantification of intestinal SKN-1::GFP was performed with ImageJ (FIG. 5B). The ASI SKN-1::GFP was assayed by a Zeiss Axiolmager M2 microscope equipped with a Hamamatsu Flash 4.0 Scientific c-mos camera and Zen2 software (X40) (FIG. 5D). The quantification of ASI SKN-1::GFP was performed with ImageJ using a sliding paraboloid algorithm for reducing the background followed by edge detection. The t-test was conducted with Welsh correction since the standard deviations were not equal (FIG. 5E). The GSTp::GFP intensity was measured same as ASI SKN-1::GFP but with ×5 magnification. The GSTp::GFP quantification was done using the whole worm signal following the same protocol as intestinal SKN-1::GFP (FIG. 5G).
Data set [7] has as its system C. elegans. How it is done: The inventors also evaluated locomotion in worms to investigate the health of the rescued animals.
Locomotion Assays. To measure locomotion, worms were subjected to 30 seconds video recording on a Zeiss Axio Zoom. V16 fluorescence dissecting microscope equipped with Axiocam 503 and ZEN2 software. Bending rate (the number of body-bends-per-seconds) was measured by placing live animals on a plate containing M9 buffer, filming for 30 seconds and counting the number of bends. Healthiness of the worms was measured by their bending rate of young, middle aged and aged animals. […] The results were obtained from 3 individual trials.
The source holds these as a separate data set.

In data set [8] the test system is SH-SY5Y cells. The data set is described as follows: H2O2-EC50 of hydralazine and its analogs (protection from H2O2 stress). Particulars: Homo sapiens. Type of data set: cell-based. How it is done: To generate intracellular aldehydes, the inventors treated human neuroblastoma cell line (SH-SY5Y) with 100 μM hydrogen peroxide (H2O2) for 24 h. Carbonyl groups were quantified using 2,4-DNPH (dinitrophenylhydrazine) assay.
Cell Viability and Cytotoxicity Assay. Cell growth was analyzed using the MTT cell viability assay. Briefly, at the end of incubation/treatment, MTT reagent was diluted in culture medium and aliquoted into each well. After incubation for 2 hours, the medium was aspirated and DMSO was aliquoted into each well to disrupt the cells and dissolve the intracellular MTT dyes. Absorbance was read at 570 nm wavelength in a 96-well plate reader. Cell toxicity was detected using a LDH cell toxicity assay kit (Promega, Fitchburg Wis.). This is a coupled enzymatic assay that detects a visible color signal initially described by Nachlas et. al. The reagent contained excess concentrations of lactate and NAD+as substrates to drive the LDH reaction and produce NADH. In the presence of diaphorase, NADH drives the enzyme-catalyzed conversion of iodonitro-tetrazolium violet to a red formazan product. Briefly, DMEM medium was withdrawn from each well of the plate after treatment and briefly centrifuged to get rid of floating cells or cell debris. Then, the medium supernatant was mixed with equal volume of substrate/enzyme mixture included in the kit (lactate, NAD+, diaphorase and iodonitro-tetrazolium violet), followed by incubation at room temperature for 15 minutes before the addition of acetic acid to cease the reaction. The absorbance was read at 490 nm in a 96-well plate reader. […] Cell viability assay was performed using CellTiter-Glo assay.

Where [9] appears, read: HEKTauP301S, 500 nM Aβ (1-42), 10 μM, 24 hours.

For the molecule `NNc1nncc2ccccc12` [Hydralazine], in the data set with SH-SY5Y cells [1] (48 hours), the “increase of NAD level of untreated cell” value stood at 50%. Besides, the “NAD level in doxorubicin treated cells” value with SH-SY5Y cells [1] (doxorubicin 0.2 μM) is “significant effect on restoring NAD level”. The “protection against doxorubicin induced cell death” value in the data set on SH-SY5Y cells [1] (doxorubicin 0.2 μM, 0, 10, 20 μM, 24 and 48 hours) is recorded as “protects cells in a dose-dependent manner”. The “protection from H2O2-induced cytotoxicity in Nrf2 knockdown cells (LDH)” value in [2] is given as “no protection”. Also, the “increase of the amount of Trx1” value with thioredoxin 1 (Trx1) is 25%. Further, the “concentration of O2− ions in aggregate-positive KD cells” value in data set [3] (Nrf2 knockdown) is recorded as “No significant change”. Also, in [3] (aggregate-positive and -negative cells, 24 h), the concentration of superoxide result is “decreased in a dose-dependent manner”. For the same molecule, the “pro-oxidant environment (DCFH-DA intensity)” value in [4] was “does not create a mild pro-oxidant environment”. In addition, the “viability under Aβ (1-42)-induced toxicity” value in the data set with HEKTauP301S cells was “protects Tau-overexpressing cells”. Also, in the data set with GSK3β and Tau (HEKT293 cells as control), the “phosphorylation level of GSK3β in control HEK293 cells” value is recorded as “not able to detect a significant upregulation”. Besides, in the data set with GSK3β and Tau (setting [9]), the “Aβ-induced Tau phosphorylation” value is on record as “inhibits Aβ-induced Tau phosphorylation” and the “phosphorylation of GSK3β” value was “upregulates the phosphorylation of GSK3β”. For the same molecule, in the data set with C. elegans [5], the “superoxide concentration in N2 worms” value is reported as “decreased superoxide concentration”. Besides, in [6] (100 μM, 72 h), the “GST-4p::GFP signal in worms fed skn-1(RNAi) or skn-1(zu67)” value was “did not increase GFP signal”. Also, the “GST-4p::GFP signal” value in data set [6] (strain CL2166, 48 h after treatment) is given as “significant increase in the GFP signal”. In addition, the “locomotor performance in skn-1(zu135) animals” value with C. elegans [7] (4, 8, 12 days) is listed as “did not improve”. For the same molecule, the “locomotor performance of young (5 days), middle age (10 days), and old (15 days) N2 animals” value in the data set with C. elegans [7] (N2) is given as “significant improvement”. Further, the “locomotor performance of pre-treated animals exposed to rotenone” value in the data set with C. elegans [7] (N2, 100 μM, 50 μM rotenone 6 h) is “superior locomotor performance”. This molecule returned an EC50 with SH-SY5Y cells [8] of 6.78 µM.

As a reminder, the EC50 is the concentration giving half of the maximal effect. A lower EC50 goes with an effect from little substance.
